This note sets out measurements from patent US20140378474A1, “5-membered heteroarylcarboxamide derivatives as plasma kallikrein inhibitors” (NOVARTIS AG, priority 2012, published 2014).

Structures can show the parent of a compound that is named as a salt.

For the test, the target named is T1, Human plasma kallikrein (Homo sapiens, UniProt P03952).
T1 construct: purchased Kordia (Leiden, Netherlands) batch HPKA 1303
T1 sequence (P03952 391-638 limits assumed): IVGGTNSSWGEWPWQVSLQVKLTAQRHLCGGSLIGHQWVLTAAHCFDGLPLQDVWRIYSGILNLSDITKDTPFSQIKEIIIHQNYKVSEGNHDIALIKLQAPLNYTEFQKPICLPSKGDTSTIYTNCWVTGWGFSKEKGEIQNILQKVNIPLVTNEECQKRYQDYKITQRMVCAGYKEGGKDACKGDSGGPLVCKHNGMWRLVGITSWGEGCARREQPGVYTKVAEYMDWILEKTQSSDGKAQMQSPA
T1 sequence (P03952 20-390 partner limits assumed): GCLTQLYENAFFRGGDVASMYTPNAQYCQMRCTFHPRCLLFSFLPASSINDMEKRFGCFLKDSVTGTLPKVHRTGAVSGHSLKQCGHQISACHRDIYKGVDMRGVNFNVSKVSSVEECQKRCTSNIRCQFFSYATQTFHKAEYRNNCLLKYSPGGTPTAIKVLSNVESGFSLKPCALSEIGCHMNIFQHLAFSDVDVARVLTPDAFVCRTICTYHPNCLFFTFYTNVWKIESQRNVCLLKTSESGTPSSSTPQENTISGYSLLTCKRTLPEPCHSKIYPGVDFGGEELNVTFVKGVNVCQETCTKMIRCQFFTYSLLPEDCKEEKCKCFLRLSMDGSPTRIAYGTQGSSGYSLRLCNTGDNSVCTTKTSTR
Put plainly: In vitro inhibition of plasma kallikrein (fluorogenic substrate DPro-Phe-Arg-(Rh110)-γGlu-OH). It is filed as biochemical. The settings on record: human plasma kallikrein nominally 12 pM, substrate 0.5 μM, 1 hour pre-incubation at room temperature, read after 1 hour (t=60 min). Here is the method:
In Vitro Inhibition of Plasma Kallikrein
The fluorogenic substrate DPro-Phe-Arg-(Rh110)-γGlu-OH (where DPro is the amino acid d-proline, Rh110 is the fluorophore rhodamine 110 and γGlu is a […] linked to Rh110 via the gamma-carbonyl function; from Biosyntan, Berlin, Germany), being based on the chromogenic substrate described in Gallimore et al (Thromb Res 25, 293-298, 1982), was dissolved in DMSO at 5 mM and stored at −80° C. All other chemicals were of analytical grade.
Human plasma kallikrein was purchased from Kordia (Leiden, Netherlands, batch HPKA 1303) in lyophilized form.
The protein solution was reconstituted from the lyophilisate by addition of deinonized water. The resulting stock solution comprised the protein at a concentration of 0.17 mg/ml in 4 mM sodium acetate/HCl and 150 mM NaCl at pH 5.3. The stock solution was stored in aliquots at −80° C. Enzymatic reactions were conducted in ‘assay buffer’, comprising 50 mM Hepes/NaOH at pH 7.8, 150 mM NaCl, 1 mM EDTA and 0.05% (w/v) CHAPS.
Both, enzyme and substrate were diluted in assay buffer.
All protein and peptide containing solutions were handled in siliconized tubes (Life Systems Design, Merenschwand, Switzerland). The compound solutions as well as the enzyme and the substrate solutions were transferred to 384-well plates (black Cliniplate; cat. no. 95040020 Labsystems Oy, Finland) by means of a CyBi-Well 96-channel pipettor (CyBio AG, Jena, Germany). Plate measurements were conducted by the means of a Safire2 reader (TECAN, Maennedorf, Switzerland). The Safire2 is a monochomator-based instrument and wavelengths of 485 nm and 535 nm were taken for fluorescence excitation and emission acquisition, respectively. The bandwidths were set to 10 nm in both the excitation and the emission path. The fluorescence in each well was excited by three flashes per measurement.
For the determination of IC50 values, the assays were performed at room temperature in 384-well plates with a total assay volume of 25.25 μl per well.
The test compound was dissolved in 90% (v/v) DMSO/water. For the assays, […] of the 90% (v/v) DMSO/water solution or compound solution were added per well, followed by the addition of 12.5 μl protease solution (protease in assay buffer). The final assay concentration of the human plasma kallikrein was nominally 12 pM, the 11 compound concentrations in the dilution series were in the range form 1 nM to 100 μM. After 1 hour of pre-incubation at room temperature, the reactions were started by the addition of 12.5 μl substrate solution (in assay buffer, final assay concentration was 0.5 μM). After the addition of the substrate solution, the final DMSO concentration in the assay was 0.9% (v/v). The effect of the compound on the enzymatic activity was obtained from the linear part of the progress curves and determined after 1 hour (t=60 min). The IC50 value was calculated from the plot of percentage of inhibition vs. inhibitor concentration by a logistics fit according to the following equation:
where y is the %-inhibition at the inhibitor concentration, x. A1 is the lowest inhibition value, i.e. 0%, and A2 the maximum inhibition value, i.e. 100%. The exponent, p, is the Hill coefficient. The curve fitting was conducted with the non-linear regression routine of the analysis software Origin 7.5SR6 (Origin Lab Corporation).
Broadly, the IC50 is the point on the concentration scale where inhibition reaches its midpoint. A higher IC50 goes with weaker potency in that assay. `O=C(NCc1n[nH]c2ccc(Cl)cc12)c1cnn(Cc2ccc(CN3CCOC3=O)cc2)c1` [Example 19, N-((5-chloro-1H-indazol-3-yl)methyl)-1-(4-((2-oxooxazolidin-3-yl)methyl)benzyl)-1H-pyrazole-4-carboxamide] gave an IC50 of 9.1 nM. In other words, the single-digit nanomolar range.
Turning to `COc1ccc(Cn2cc(C(=O)NCc3ccc(Cl)cc3)cn2)cc1` [N-(4-chlorobenzyl)-1-(4-methoxybenzyl)-1H-pyrazole-4-carboxamide], the IC50 is > 30000 nM.
For `Cc1ccc2cc(Cn3cc(C(=O)NCc4ncc(N)nc4C)nn3)ccc2n1` [Example 13, N-((5-amino-3-methylpyrazin-2-yl)methyl)-1-((2-methylquinolin-6-yl)methyl)-1H-1,2,3-triazole-4-carboxamide] the value was 784 nM; for `COc1cc(C)c(CNC(=O)c2cn(Cc3ccc4nc(C)ccc4c3)nn2)c(C)n1` [N-((6-methoxy-2,4-dimethylpyridin-3-yl)methyl)-1-((2-methylquinolin-6-yl)methyl)-1H-1,2,3-triazole-4-carboxamide], > 30000 nM.
In the case of `COc1cccc(Cn2cc(C(=O)NCc3n[nH]c4ccc(Cl)cc34)cn2)c1` [Example 26, N-((5-chloro-1H-indazol-3-yl)methyl)-1-(3-methoxybenzyl)-1H-pyrazole-4-carboxamide], the IC50 amounted to 429 nM.
The same measure for `Cc1ccc2cc(Cn3cc(C(=O)NCc4c(C)ccnc4C(F)(F)F)nn3)ccc2n1` [Example 6, N-((4-methyl-2-(trifluoromethyl)pyridin-3-yl)methyl)-1-((2-methylquinolin-6-yl)methyl)-1H-1,2,3-triazole-4-carboxamide]: 2840 nM.
In the case of `Cc1ccc2cc(Cn3cc(C(=O)NCc4c[nH]c5ccc(Cl)cc45)cn3)ccc2n1` [Example 12, N-((5-chloro-1H-indol-3-yl)methyl)-1-((2-methylquinolin-6-yl)methyl)-1H-pyrazole-4-carboxamide], the IC50 amounted to 24.3 nM.
Molecule `N=C(N)c1ccc(CNC(=O)c2cnn(Cc3ccc(Cn4cccn4)cc3)c2)cc1` [Example 10, 1-(4-((1H-pyrazol-1-yl)methyl)benzyl)-N-(4-carbamimidoylbenzyl)-1H-pyrazole-4-carboxamide hydrochloride] showed an IC50 of 0.878 nM. This IC50 lies about 28-fold lower than the previous one.
Molecule `O=C(NCc1c[nH]c2ccc(Cl)cc12)c1cnn(Cc2ccc(Cn3ccccc3=O)cc2)c1` [Example 16, N-((5-chloro-1H-indol-3-yl)methyl)-1-(4-((2-oxopyridin-1(2H)-yl)methyl)benzyl)-1H-pyrazole-4-carboxamide] returned an IC50 of 0.328 nM.
Regarding `COc1ccc(Cl)c(CNC(=O)c2cn(Cc3ccc4nc(C)ccc4c3)nn2)c1F` [Example 14, N-(6-chloro-2-fluoro-3-methoxybenzyl)-1-((2-methylquinolin-6-yl)methyl)-1H-1,2,3-triazole-4-carboxamide], the IC50 came to 42 nM.
For the molecule `Cc1cnc2[nH]cc(CNC(=O)c3cn(Cc4ccc5nc(C)ccc5c4)nn3)c2c1` [Example 5, N-((5-methyl-1H-pyrrolo[2,3-b]pyridin-3-yl)methyl)-1-((2-methylquinolin-6-yl)methyl)-1H-1,2,3-triazole-4-carboxamide], the IC50 amounted to 2920 nM. This IC50 lies about 70-fold higher than the previous one.
In turn, `O=C(NCc1c[nH]c2ccc(Cl)cc12)c1cnn(Cc2ccc(Cn3cccn3)cc2)c1` [Example 18, 1-(4-((1H-pyrazol-1-yl)methyl)benzyl)-N-((5-chloro-1H-indol-3-yl)methyl)-1H-pyrazole-4-carboxamide] came in with an IC50 of 4.39 nM. This IC50 is about 670-fold lower than that of the molecule before.
As for `O=C(NCc1n[nH]c2ccc(Cl)cc12)c1cnn(Cc2ccc(Cn3cccn3)cc2)c1` [Example 17, 1-(4-((1H-pyrazol-1-yl)methyl)benzyl)-N-((5-chloro-1H-indazol-3-yl)methyl)-1H-pyrazole-4-carboxamide], the IC50 amounted to 0.554 nM.
As for `O=C(NCc1c[nH]c2ccc(Cl)cc12)c1cnn(Cc2ccc(CN3CCOC3=O)cc2)c1` [Example 22, N-((5-chloro-1H-indol-3-yl)methyl)-1-(4-((2-oxooxazolidin-3-yl)methyl)benzyl)-1H-pyrazole-4-carboxamide], inhibition was half-maximal at 60 nM (IC50).
Turning to `COc1cccc(Cn2cc(C(=O)NCc3ccc(Cl)cc3)cn2)c1` [N-(4-chlorobenzyl)-1-(3-methoxybenzyl)-1H-pyrazole-4-carboxamide], the IC50 was > 30000 nM.
For `Cc1ccc2cc(Cn3cc(C(=O)NCc4n[nH]c5ccc(Cl)cc45)cn3)ccc2n1` [Example 20, N-((5-chloro-1H-indazol-3-yl)methyl)-1-((2-methylquinolin-6-yl)methyl)-1H-pyrazole-4-carboxamide] the value was 10.9 nM.
Molecule `COc1cc(Cn2cc(C(=O)NCc3n[nH]c4ccc(Cl)cc34)cn2)cc(OC)c1` [Example 25, N-((5-chloro-1H-indazol-3-yl)methyl)-1-(3,5-dimethoxybenzyl)-1H-pyrazole-4-carboxamide] had an IC50 of 312 nM.
Consider `Cn1nnc2cc(Cn3cc(C(=O)NCc4cccc(Cl)c4)cn3)ccc21` [N-(3-chlorobenzyl)-1-((1-methyl-1H-benzo[d][1,2,3]triazol-5-yl)methyl)-1H-pyrazole-4-carboxamide], for which the IC50 was > 30000 nM.
Turning to `COc1ccc(Cn2cc(C(=O)NCc3n[nH]c4ccc(Cl)cc34)cn2)cc1OC` [Example 24, N-((5-chloro-1H-indazol-3-yl)methyl)-1-(3,4-dimethoxybenzyl)-1H-pyrazole-4-carboxamide], the IC50 is 285 nM.
For `Cc1ccc2cc(Cn3cc(C(=O)NCc4c(C)ccnc4C)nn3)ccc2n1` [Example 1, N-((2,4-dimethylpyridin-3-yl)methyl)-1-((2-methylquinolin-6-yl)methyl)-1H-1,2,3-triazole-4-carboxamide] the value was 10200 nM; for `N=C(N)c1ccc(CNC(=O)c2cnn(Cc3ccc4ccccc4c3)c2)cc1` [Example 9, N-(4-carbamimidoylbenzyl)-1-(naphthalen-2-ylmethyl)-1H-pyrazole-4-carboxamide hydrochloride], 0.292 nM; for `O=C(NCc1n[nH]c2ccc(Cl)cc12)c1cnn(Cc2ccc(S(=O)(=O)n3cccc3)cc2)c1` [Example 21, 1-(4-((1H-pyrrol-1-yl)sulfonyl)benzyl)-N-((5-chloro-1H-indazol-3-yl)methyl)-1H-pyrazole-4-carboxamide], 46.4 nM.
In turn, `C[C@@H](NC(=O)c1cnn(Cc2ccc(Cn3cccn3)cc2)c1)c1cccc(Cl)c1` [Example 8, (R)-1-(4-((1H-pyrazol-1-yl)methyl)benzyl)-N-(1-(3-chlorophenyl)ethyl)-1H-pyrazole-4-carboxamide] had an IC50 of 1620 nM.
`O=C(NCc1c[nH]c2ccc(Cl)cc12)c1cnn(Cc2ccc(S(=O)(=O)n3cccc3)cc2)c1` [Example 23, 1-(4-((1H-pyrrol-1-yl)sulfonyl)benzyl)-N-((5-chloro-1H-indol-3-yl)methyl)-1H-pyrazole-4-carboxamide] had a 50% inhibitory concentration (IC50) of 134 nM.
The same measure for `C[C@@H](NC(=O)c1cnn(Cc2ccc(Cn3cccn3)cc2)c1)c1cccc(Cl)c1F` [Example 28, (R)-1-(4-((1H-pyrazol-1-yl)methyl)benzyl)-N-(1-(3-chloro-2-fluorophenyl)ethyl)-1H-pyrazole-4-carboxamide]: 27200 nM; for `O=C(NCc1cccc(Cl)c1)c1cnn(Cc2ccc(Cn3cccn3)cc2)c1` [Example 7, 1-(4-((1H-pyrazol-1-yl)methyl)benzyl)-N-(3-chlorobenzyl)-1H-pyrazole-4-carboxamide]: 1310 nM.
